Source: US4256742A, “Antidepressant oxime ethers of dibenzocycloheptaziridones” (E. I. Du Pont de Nemours and Company, priority 1979, dated 1981)
Counter-ions that a name gives are not always drawn. Like-named read-outs stand apart in the source and are kept apart here.

Columns and labels:
[1] = test system: tetrabenazine-induced sedation and depression; assay: Antitetrabenazine test: prevention of tetrabenazine-induced sedation and ptosis in mice; format: in vivo, mice (Carworth CF1 S female); conditions: tetrabenazine 32 mg/kg i.p. 30 min later, examined 1 h after antagonist; for ED50: Mus musculus
Protocol: This mouse test is predictive of human antidepressant response (Everett, "The Dopa Response Petentiation Test and Its Use in Screening for Antidepressant Drugs", pp. 164-167 in "Antidepressant Drugs" [Proceedings of the First International Symposium], S. Garattini and M. N. G. Dukes, eds. 1967).
Groups of 10 Carworth CF1 S female mice, 18-21 g each, were fasted 1.5 hours and were intubated with antagonist compounds at oral doses of 0, 0.33, 1, 3, 9, 27, and 81 mg/kg in 0.20 ml of 1% Methocel. The mice were challenged 30 minutes later with tetrabenazine (as the methane-sulfonate),32 mg/kg intraperitoneally (dissolved in 0.20 ml 0.05 M KCl at pH 2.0). One hour after antagonist (30 minutes after tetrabenazine), the mice were examined for signs of exploratory activity and ptosis (eyelid closure). Normal exploratory activity (relief from sedation) was recorded when a mouse lifted by the tail from a group of 10 in a testing box and placed on a stainless steel testing box lid (12.5"×8" with 0.33" mesh) either turned its head horizontally 30° in both directions or moved to the edge of the screen within 10 seconds after being placed on the screen. Relief from ptosis was recorded when exactly two seconds after placing the mouse facing the observer, lid closure was less than 50% in both eyes. Table 1 gives the results in mg/kg for examples of the invention and for the established standard antidepressant, amitriptyline.

[2] = Water solubility of the salts; format: physicochemical; conditions: salt as isolated
[3] = po, 1 h, read-out: ED50 in antitetrabenazine test, blockade of exploratory loss (Explor.), oral, female mice, normal exploratory activity (relief from sedation)
[4] = po, 1 h, read-out: ED50 in antitetrabenazine test, blockade of ptosis, oral, female mice, relief from ptosis
[5] = oral, female mice, normal exploratory activity (relief from sedation), read-out: ED50 in antitetrabenazine test, blockade of exploratory loss (Explor.)
[6] = oral, female mice, relief from ptosis, read-out: ED50 in antitetrabenazine test, blockade of ptosis

NCCON=C1c2ccccc2C2NC2c2ccccc21 (stereo not shown) [Example 19]
ED50 in antitetrabenazine test, blockade of exploratory loss (Explor.) ([1]; oral, female mice, normal exploratory activity (relief from sedation), listed as R^2=CH2 CH2 NH2, R^1=H, Z=drawing 41, 60 min): 14. mg/kg
ED50 in antitetrabenazine test, blockade of ptosis ([1]; oral, female mice, relief from ptosis, listed as R^2=CH2 CH2 NH2, R^1=H, Z=drawing 41, 60 min): 3.4 mg/kg
water solubility (in words) [2]: Water Soluble

CNCCON=C1c2ccccc2C2NC2c2ccccc21 (stereo not shown) [Example 8]
ED50 in antitetrabenazine test, blockade of exploratory loss (Explor.) ([1]; oral, female mice, normal exploratory activity (relief from sedation), listed as R^2=CH2 CH2 NHCH3, R^1=H, Z=--, 60 min): 1.9 mg/kg
ED50 in antitetrabenazine test, blockade of ptosis ([1]; oral, female mice, relief from ptosis, listed as R^2=CH2 CH2 NHCH3, R^1=H, Z=--, 60 min): 0.57 mg/kg

c1ccc2c(c1)C(=NOCCN1CCCCC1)c1ccccc1C1NC21 (stereo not shown) [R^2=drawing 45; R^1=H; Z=--]
ED50 [1, 3]: > 81 mg/kg
ED50 [1, 4]: 8.3 mg/kg

CN(C)CCON=C1c2ccccc2C2C(c3ccccc31)N2C (stereo not shown) [Example 3, O-[2-(Dimethylamino)ethyl]oxime of 1a,10b-Dihydrodibenzo-[3,4,6,7]cyclohept[1,2-b]-N-methylazirin-6(1H)-one]
ED50 [1, 4]: 0.65 mg/kg
ED50 in antitetrabenazine test, blockade of exploratory loss (Explor.) ([1]; oral, female mice, normal exploratory activity (relief from sedation), listed as R^2=CH2 CH2 N(CH3)2, R^1=CH3, Z=--, 60 min): 0.93 mg/kg

CN(C)CCON=C1c2ccccc2C2C(c3ccccc31)N2C(=O)c1ccccc1 (stereo not shown) [R^2=CH2 CH2 N(CH3)2; R^1=drawing 44; Z=--]
ED50 [1, 5]: 5.5 mg/kg
ED50 [1, 6]: 5.2 mg/kg

CC(=O)N1C2c3ccccc3C(=NOCCN(C)C)c3ccccc3C21 (stereo not shown) [R^2=CH2 CH2 N(CH3)2; R^1=drawing 43; Z=--]
ED50 [1, 5]: 19 mg/kg
ED50 [1, 6]: 13 mg/kg

CCNCCON=C1c2ccccc2C2NC2c2ccccc21 (stereo not shown) [Example 14]
ED50 [1, 3]: 9 mg/kg
ED50 [1, 4]: 4.3 mg/kg

CN(C)CCON=C1c2ccccc2C2NC2c2ccccc21 (stereo not shown) [Example 17]
ED50 in antitetrabenazine test, blockade of exploratory loss (Explor.) ([1]; oral, female mice, normal exploratory activity (relief from sedation), listed as R^2=CH2 CH2 N(CH3)2, R^1=H, Z=. Tartrate, 60 min): 0.57 mg/kg
ED50 in antitetrabenazine test, blockade of ptosis ([1]; oral, female mice, relief from ptosis, listed as R^2=CH2 CH2 N(CH3)2, R^1=H, Z=. Tartrate, 60 min): 0.33 mg/kg
water solubility (in words) [2]: Water Soluble

CNCCON=C1c2ccccc2C2NC2c2ccccc21 (stereo not shown) [Example 20]
ED50 in antitetrabenazine test, blockade of exploratory loss (Explor.) ([1]; oral, female mice, normal exploratory activity (relief from sedation), listed as R^2=CH2 CH2 NHCH3, R^1=H, Z=drawing 42, 60 min): 6.2 mg/kg
ED50 in antitetrabenazine test, blockade of ptosis ([1]; oral, female mice, relief from ptosis, listed as R^2=CH2 CH2 NHCH3, R^1=H, Z=drawing 42, 60 min): 1.3 mg/kg
water solubility (in words) [2]: Water Soluble

NCCON=C1c2ccccc2C2NC2c2ccccc21 (stereo not shown) [Example 7]
ED50 in antitetrabenazine test, blockade of exploratory loss (Explor.) ([1]; oral, female mice, normal exploratory activity (relief from sedation), listed as R^2=CH2 CH2 NH2, R^1=H, Z=--, 60 min): 6.6 mg/kg
ED50 in antitetrabenazine test, blockade of ptosis ([1]; oral, female mice, relief from ptosis, listed as R^2=CH2 CH2 NH2, R^1=H, Z=--, 60 min): 1.3 mg/kg

CN(C)CCON=C1c2ccccc2C2NC2c2ccccc21 (stereo not shown) [Example 18]
ED50 in antitetrabenazine test, blockade of exploratory loss (Explor.) ([1]; oral, female mice, normal exploratory activity (relief from sedation), listed as R^2=CH2 CH2 N(CH3)2, R^1=H, Z=. HCl, 60 min): 2.2 mg/kg
ED50 in antitetrabenazine test, blockade of ptosis ([1]; oral, female mice, relief from ptosis, listed as R^2=CH2 CH2 N(CH3)2, R^1=H, Z=. HCl, 60 min): 1.0 mg/kg
water solubility (in words) [2]: Water Soluble

CN(C)CCON=C1c2ccccc2C2NC2c2ccccc21 (stereo not shown) [Example 2, O-[2-(Dimethylamino)ethyl]oxime of 1a,10b-dihydrodibenzo[3,4,6,7]cyclohept[1,2-b]azirin-6(1H)-one]
ED50 in antitetrabenazine test, blockade of exploratory loss (Explor.) ([1]; oral, female mice, normal exploratory activity (relief from sedation), listed as R^2=CH2 CH2 N(CH3)2, R^1=H, Z=--, 60 min): 1.1 mg/kg
ED50 in antitetrabenazine test, blockade of ptosis ([1]; oral, female mice, relief from ptosis, listed as R^2=CH2 CH2 N(CH3)2, R^1=H, Z=--, 60 min): 0.65 mg/kg

CN(C)CCC=C1c2ccccc2CCc2ccccc21 [AMTRIPTYLINE, amitriptyline, reference compound]
ED50 [1, 5]: 2.6 mg/kg
ED50 [1, 6]: 1.2 mg/kg

CN(C)CCON=C1c2ccccc2C2C(c3ccccc31)N2CC1CC1 (stereo not shown) [Example 21]
ED50 [1, 3]: 11.8 mg/kg
ED50 [1, 4]: 10.8 mg/kg

CN(C)CCON=C1c2ccccc2C2C(c3ccccc31)N2CC1CCC1 (stereo not shown) [Example 22]
ED50 [1, 3]: 16 mg/kg
ED50 [1, 4]: 10.8 mg/kg

c1ccc2c(c1)C(=NOCCN1CCOCC1)c1ccccc1C1NC21 (stereo not shown) [R^2=drawing 46; R^1=H; Z=--]
ED50 [1, 3]: 16 mg/kg
ED50 [1, 4]: 5.2 mg/kg

CN(C)CCON=C1c2ccccc2C2C(c3ccccc31)N2C (stereo not shown) [Example 16, Tartaric acid Salt of O-[2-(dimethylamino)ethyl]oxime of 1a, 10b-dihydrodibenzo[3,4,6,7]cyclohept[1,2-b]-N-methylazirin-6(1H)-one]
ED50 in antitetrabenazine test, blockade of exploratory loss (Explor.) ([1]; oral, female mice, normal exploratory activity (relief from sedation), listed as R^2=CH2 CH2 N(CH3)2, R^1=CH3, Z=. Tartrate, 60 min): 2.7 mg/kg
ED50 in antitetrabenazine test, blockade of ptosis ([1]; oral, female mice, relief from ptosis, listed as R^2=CH2 CH2 N(CH3)2, R^1=CH3, Z=. Tartrate, 60 min): 0.93 mg/kg
water solubility (in words) [2]: watersoluble

CN(C)CCCON=C1c2ccccc2C2NC2c2ccccc21 (stereo not shown) [Example 9]
ED50 [1, 3]: 32 mg/kg
ED50 [1, 4]: 18 mg/kg

CCCCNCCON=C1c2ccccc2C2NC2c2ccccc21 (stereo not shown) [Example 15]
ED50 [1, 3]: > 81 mg/kg
ED50 [1, 4]: 13.3 mg/kg
